Assay results from ChEMBL document CHEMBL2396528, “Synthesis of new conjugated coumarin-benzimidazole hybrids and their anticancer activity” (2013).

Tested on: MDA-MB-468
Assay: Cytotoxicity against human MDA-MB-468 cells assessed as growth inhibition at 10 uM after 48 hrs by SRB assay relative to control
Assay type: functional
Settings: MDA-MB-468, 48 h, read-out: GI
Work on `O=c1oc2cc(NCCO)ccc2cc1-c1nc2ccccc2[nH]1` yielded an inhibition of growth at 10 µM of 48.4%.

Tested on: Hs-578T
Assay: Cytotoxicity against human Hs578T cells assessed as growth inhibition at 10 uM after 48 hrs by SRB assay relative to control
Assay type: functional
Settings: read-out: GI
For `O=c1oc2cc(NCCO)ccc2cc1-c1nc2ccccc2[nH]1`, the inhibition of growth at 10 µM was under 20%.

Tested on: MDA-MB-231
Assay: Cytotoxicity against human MDA-MB-231 cells assessed as growth inhibition at 10 uM after 48 hrs by SRB assay relative to control
Assay type: functional
Settings: MDA-MB-231, 48 h, read-out: GI
In the case of `O=c1oc2cc(NCCO)ccc2cc1-c1nc2ccccc2[nH]1`, the inhibition of growth at 10 µM is reported as 58.9%.

Tested on: MCF7
Assay: Cytotoxicity against human MCF7 cells assessed as growth inhibition at 10 uM after 48 hrs by SRB assay relative to control
Assay type: functional
Settings: MCF7, 48 h, read-out: GI
For `O=c1oc2cc(NCCO)ccc2cc1-c1nc2ccccc2[nH]1`, the inhibition of growth at 10 µM was 62.1%.

Tested on: DU-145
Assay: Cytotoxicity against human DU145 cells assessed as growth inhibition at 10 uM after 48 hrs by SRB assay relative to control
Assay type: functional
Settings: DU-145, 48 h, read-out: GI
`O=c1oc2cc(NCCO)ccc2cc1-c1nc2ccccc2[nH]1` gave an inhibition of growth at 10 µM of under 20%.

Tested on: PC-3
Assay: Cytotoxicity against human PC3 cells assessed as growth inhibition at 10 uM after 48 hrs by SRB assay relative to control
Assay type: functional
Settings: PC-3, 48 h, read-out: GI
With `O=c1oc2cc(NCCO)ccc2cc1-c1nc2ccccc2[nH]1` the inhibition of growth at 10 µM was 56.7%.

Tested on: UO-31
Assay: Cytotoxicity against human UO31 cells assessed as growth inhibition at 10 uM after 48 hrs by SRB assay relative to control
Assay type: functional
Settings: UO-31, 48 h, read-out: GI
`O=c1oc2cc(NCCO)ccc2cc1-c1nc2ccccc2[nH]1` showed an inhibition of growth at 10 µM of 41.9%.

Tested on: SN12C
Assay: Cytotoxicity against human SN12C cells assessed as growth inhibition at 10 uM after 48 hrs by SRB assay relative to control
Assay type: functional
Settings: read-out: GI
`O=c1oc2cc(NCCO)ccc2cc1-c1nc2ccccc2[nH]1` gave an inhibition of growth at 10 µM of 22.4%.

Tested on: ACHN
Assay: Cytotoxicity against human ACHN cells assessed as growth inhibition at 10 uM after 48 hrs by SRB assay relative to control
Assay type: functional
Settings: read-out: GI
`O=c1oc2cc(NCCO)ccc2cc1-c1nc2ccccc2[nH]1` showed an inhibition of growth at 10 µM of under 20%.

Tested on: SK-OV-3
Assay: Cytotoxicity against human SKOV3 cells assessed as growth inhibition at 10 uM after 48 hrs by SRB assay relative to control
Assay type: functional
Settings: SK-OV-3, 48 h, read-out: GI
`O=c1oc2cc(NCCO)ccc2cc1-c1nc2ccccc2[nH]1` showed an inhibition of growth at 10 µM of under 20%.

Tested on: A498
Assay: Cytotoxicity against human A498 cells assessed as growth inhibition at 10 uM after 48 hrs by SRB assay relative to control
Assay type: functional
Settings: A498, 48 h, read-out: GI
In the case of `O=c1oc2cc(NCCO)ccc2cc1-c1nc2ccccc2[nH]1`, the inhibition of growth at 10 µM is reported as under 20%.

Tested on: not listed separately
Assay: Cytotoxicity against human NCI-ADR-RES cells assessed as growth inhibition at 10 uM after 48 hrs by SRB assay relative to control
Assay type: functional
Settings: read-out: GI
In the case of `O=c1oc2cc(NCCO)ccc2cc1-c1nc2ccccc2[nH]1`, the inhibition of growth at 10 µM is reported as 23.7%.

Tested on: OVCAR-8
Assay: Cytotoxicity against human OVCAR8 cells assessed as growth inhibition at 10 uM after 48 hrs by SRB assay relative to control
Assay type: functional
Settings: OVCAR-8, 48 h, read-out: GI
In the case of `O=c1oc2cc(NCCO)ccc2cc1-c1nc2ccccc2[nH]1`, the inhibition of growth at 10 µM is reported as 31.4%.

Tested on: OVCAR-4
Assay: Cytotoxicity against human OVCAR4 cells assessed as growth inhibition at 10 uM after 48 hrs by SRB assay relative to control
Assay type: functional
Settings: OVCAR-4, 48 h, read-out: GI
In the case of `O=c1oc2cc(NCCO)ccc2cc1-c1nc2ccccc2[nH]1`, the inhibition of growth at 10 µM is reported as 44.8%.

Tested on: IGROV-1
Assay: Cytotoxicity against human IGROV1 cells assessed as growth inhibition at 10 uM after 48 hrs by SRB assay relative to control
Assay type: functional
Settings: IGROV-1, 48 h, read-out: GI
With `O=c1oc2cc(NCCO)ccc2cc1-c1nc2ccccc2[nH]1` the inhibition of growth at 10 µM was 24.5%.

Tested on: UACC-62
Assay: Cytotoxicity against human UACC62 cells assessed as growth inhibition at 10 uM after 48 hrs by SRB assay relative to control
Assay type: functional
Settings: UACC-62, 48 h, read-out: GI
For `O=c1oc2cc(NCCO)ccc2cc1-c1nc2ccccc2[nH]1`, the inhibition of growth at 10 µM was 27.2%.

Tested on: M14
Assay: Cytotoxicity against human M14 cells assessed as growth inhibition at 10 uM after 48 hrs by SRB assay relative to control
Assay type: functional
Settings: M14, 48 h, read-out: GI
In the case of `O=c1oc2cc(NCCO)ccc2cc1-c1nc2ccccc2[nH]1`, the inhibition of growth at 10 µM is reported as 25.4%.

Tested on: Malme-3M
Assay: Cytotoxicity against human MALME-3M cells assessed as growth inhibition at 10 uM after 48 hrs by SRB assay relative to control
Assay type: functional
Settings: read-out: GI
`O=c1oc2cc(NCCO)ccc2cc1-c1nc2ccccc2[nH]1` showed an inhibition of growth at 10 µM of 29.8%.

Tested on: U-251
Assay: Cytotoxicity against human U251 cells assessed as growth inhibition at 10 uM after 48 hrs by SRB assay relative to control
Assay type: functional
Settings: U-251, 48 h, read-out: GI
`O=c1oc2cc(NCCO)ccc2cc1-c1nc2ccccc2[nH]1` showed an inhibition of growth at 10 µM of 20.7%.

Tested on: SNB-75
Assay: Cytotoxicity against human SNB75 cells assessed as growth inhibition at 10 uM after 48 hrs by SRB assay relative to control
Assay type: functional
Settings: SNB-75, 48 h, read-out: GI
Work on `O=c1oc2cc(NCCO)ccc2cc1-c1nc2ccccc2[nH]1` yielded an inhibition of growth at 10 µM of under 20%.

Tested on: SF-539
Assay: Cytotoxicity against human SF539 cells assessed as growth inhibition at 10 uM after 48 hrs by SRB assay relative to control
Assay type: functional
Settings: SF-539, 48 h, read-out: GI
For `O=c1oc2cc(NCCO)ccc2cc1-c1nc2ccccc2[nH]1`, the inhibition of growth at 10 µM was 25.9%.

Tested on: SF-268
Assay: Cytotoxicity against human SF268 cells assessed as growth inhibition at 10 uM after 48 hrs by SRB assay relative to control
Assay type: functional
Settings: SF-268, 48 h, read-out: GI
In the case of `O=c1oc2cc(NCCO)ccc2cc1-c1nc2ccccc2[nH]1`, the inhibition of growth at 10 µM is reported as 26.1%.

Tested on: SW-620
Assay: Cytotoxicity against human SW620 cells assessed as growth inhibition at 10 uM after 48 hrs by SRB assay relative to control
Assay type: functional
Settings: SW-620, 48 h, read-out: GI
Compound `O=c1oc2cc(NCCO)ccc2cc1-c1nc2ccccc2[nH]1` has an inhibition of growth at 10 µM of 21.4%.

Tested on: HCT-15
Assay: Cytotoxicity against human HCT15 cells assessed as growth inhibition at 10 uM after 48 hrs by SRB assay relative to control
Assay type: functional
Settings: HCT-15, 48 h, read-out: GI
In the case of `O=c1oc2cc(NCCO)ccc2cc1-c1nc2ccccc2[nH]1`, the inhibition of growth at 10 µM is reported as 72.7%.

Tested on: HCC 2998
Assay: Cytotoxicity against human HCC2998 cells assessed as growth inhibition at 10 uM after 48 hrs by SRB assay relative to control
Assay type: functional
Settings: HCC 2998, 48 h, read-out: GI
In the case of `O=c1oc2cc(NCCO)ccc2cc1-c1nc2ccccc2[nH]1`, the inhibition of growth at 10 µM is reported as under 20%.

Tested on: HCT-116
Assay: Cytotoxicity against human HCT116 cells assessed as growth inhibition at 10 uM after 48 hrs by SRB assay relative to control
Assay type: functional
Settings: HCT-116, 48 h, read-out: GI
`O=c1oc2cc(NCCO)ccc2cc1-c1nc2ccccc2[nH]1` showed an inhibition of growth at 10 µM of 62.2%.

Tested on: NCI-H23
Assay: Cytotoxicity against human NCI-H23 cells assessed as growth inhibition at 10 uM after 48 hrs by SRB assay relative to control
Assay type: functional
Settings: NCI-H23, 48 h, read-out: GI
With `O=c1oc2cc(NCCO)ccc2cc1-c1nc2ccccc2[nH]1` the inhibition of growth at 10 µM was 32.9%.

Tested on: NCI-H226
Assay: Cytotoxicity against human NCI-H226 cells assessed as growth inhibition at 10 uM after 48 hrs by SRB assay relative to control
Assay type: functional
Settings: NCI-H226, 48 h, read-out: GI
For `O=c1oc2cc(NCCO)ccc2cc1-c1nc2ccccc2[nH]1`, the inhibition of growth at 10 µM was 30%.

Tested on: HOP-62
Assay: Cytotoxicity against human HOP62 cells assessed as growth inhibition at 10 uM after 48 hrs by SRB assay relative to control
Assay type: functional
Settings: HOP-62, 48 h, read-out: GI
Work on `O=c1oc2cc(NCCO)ccc2cc1-c1nc2ccccc2[nH]1` yielded an inhibition of growth at 10 µM of 24.8%.

Tested on: HOP-92
Assay: Cytotoxicity against human HOP92 cells assessed as growth inhibition at 10 uM after 48 hrs by SRB assay relative to control
Assay type: functional
Settings: HOP-92, 48 h, read-out: GI
Compound `O=c1oc2cc(NCCO)ccc2cc1-c1nc2ccccc2[nH]1` has an inhibition of growth at 10 µM of under 20%.

Tested on: RPMI-8226
Assay: Cytotoxicity against human RPMI8226 cells assessed as growth inhibition at 10 uM after 48 hrs by SRB assay relative to control
Assay type: functional
Settings: RPMI-8226, 48 h, read-out: GI
`O=c1oc2cc(NCCO)ccc2cc1-c1nc2ccccc2[nH]1` showed an inhibition of growth at 10 µM of 46.6%.

Tested on: MOLT-4
Assay: Cytotoxicity against human MOLT4 cells assessed as growth inhibition at 10 uM after 48 hrs by SRB assay relative to control
Assay type: functional
Settings: MOLT-4, 48 h, read-out: GI
`O=c1oc2cc(NCCO)ccc2cc1-c1nc2ccccc2[nH]1` showed an inhibition of growth at 10 µM of 38%.

Tested on: HL-60(TB)
Assay: Cytotoxicity against human HL-60(TB) cells assessed as growth inhibition at 10 uM after 48 hrs by SRB assay relative to control
Assay type: functional
Settings: HL-60, 48 h, read-out: GI
`O=c1oc2cc(NCCO)ccc2cc1-c1nc2ccccc2[nH]1` showed an inhibition of growth at 10 µM of 80.5%.

Tested on: K562
Assay: Cytotoxicity against human K562 cells assessed as growth inhibition at 10 uM after 48 hrs by SRB assay relative to control
Assay type: functional
Settings: K562, 48 h, read-out: GI
Compound `O=c1oc2cc(NCCO)ccc2cc1-c1nc2ccccc2[nH]1` has an inhibition of growth at 10 µM of 57.3%.

Tested on: CCRF-CEM
Assay: Cytotoxicity against human CCRF-CEM cells assessed as growth inhibition at 10 uM after 48 hrs by SRB assay relative to control
Assay type: functional
Settings: read-out: GI
`O=c1oc2cc(NCCO)ccc2cc1-c1nc2ccccc2[nH]1` gave an inhibition of growth at 10 µM of 72.5%.
